In US7118895B2, “Process for producing aglycon by using diglycosidase and flavor-improved food containing the aglycon and converting agent to be used in the process” (Amano Enzyme Inc., priority 2000, dated 2006):

Tested on: Crude diglycosidase
Test: Examination of substrate concentration in the conversion into isoflavone aglycons by diglycosidase using soybean materials;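 note: percent of the isoflavone family total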
Assay type: biochemical, Penicillium multicolor IAM7153
Method in brief: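 Soybean materials (roasted soy flour, soymilk, defatted soybean, concentrated soy protein) at 2–30% (w/v) in 20 mM acetate pH 4.0 were reacted with crude diglycosidase at 55° C with shaking; enzyme solution added was 1.88 AU/mL. Samples taken at 0, 1, 3 and 6 h were ethanol-extracted and analyzed by HPLC.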

- Decomposition efficiency: ratio of each glycoside/aglycon within its isoflavone family (concentrated soybean protein, substrate concentration 2%, heat treatment of enzyme no, reaction time 0 h): 11.6%
- Decomposition efficiency: ratio of each glycoside/aglycon within its isoflavone family (concentrated soybean protein, substrate concentration 2%, heat treatment of enzyme no, reaction time 1 h): 85.3%
- Decomposition efficiency: ratio of each glycoside/aglycon within its isoflavone family (concentrated soybean protein, substrate concentration 2%, heat treatment of enzyme no, reaction time 3 h): 94.4%
- Decomposition efficiency: ratio of each glycoside/aglycon within its isoflavone family (concentrated soybean protein, substrate concentration 2%, heat treatment of enzyme no, reaction time 6 h): 100.0%
- Decomposition efficiency: ratio of each glycoside/aglycon within its isoflavone family (concentrated soybean protein, substrate concentration 2%, heat treatment of enzyme yes, reaction time 6 h): 11.2%
- Decomposition efficiency: ratio of each glycoside/aglycon within its isoflavone family (concentrated soybean protein, substrate concentration 5%, heat treatment of enzyme no, reaction time 0 h): 11.2%
- Decomposition efficiency: ratio of each glycoside/aglycon within its isoflavone family (concentrated soybean protein, substrate concentration 5%, heat treatment of enzyme no, reaction time 1 h): 72.4%
- Decomposition efficiency: ratio of each glycoside/aglycon within its isoflavone family (concentrated soybean protein, substrate concentration 5%, heat treatment of enzyme no, reaction time 3 h): 81.9%
- Decomposition efficiency: ratio of each glycoside/aglycon within its isoflavone family (concentrated soybean protein, substrate concentration 5%, heat treatment of enzyme no, reaction time 6 h): 87.4%
- Decomposition efficiency: ratio of each glycoside/aglycon within its isoflavone family (concentrated soybean protein, substrate concentration 5%, heat treatment of enzyme yes, reaction time 6 h): 11.3%
- Decomposition efficiency: ratio of each glycoside/aglycon within its isoflavone family (concentrated soybean protein, substrate concentration 10%, heat treatment of enzyme no, reaction time 0 h): 11.0%
- Decomposition efficiency: ratio of each glycoside/aglycon within its isoflavone family (concentrated soybean protein, substrate concentration 10%, heat treatment of enzyme no, reaction time 1 h): 66.8%
- Decomposition efficiency: ratio of each glycoside/aglycon within its isoflavone family (concentrated soybean protein, substrate concentration 10%, heat treatment of enzyme no, reaction time 3 h): 73.5%
- Decomposition efficiency: ratio of each glycoside/aglycon within its isoflavone family (concentrated soybean protein, substrate concentration 10%, heat treatment of enzyme no, reaction time 6 h): 75.8%
- Decomposition efficiency: ratio of each glycoside/aglycon within its isoflavone family (concentrated soybean protein, substrate concentration 10%, heat treatment of enzyme yes, reaction time 6 h): 11.1%
- Decomposition efficiency: ratio of each glycoside/aglycon within its isoflavone family (concentrated soybean protein, substrate concentration 20%, heat treatment of enzyme no, reaction time 0 h): 10.8%
- Decomposition efficiency: ratio of each glycoside/aglycon within its isoflavone family (concentrated soybean protein, substrate concentration 20%, heat treatment of enzyme no, reaction time 1 h): 51.2%
- Decomposition efficiency: ratio of each glycoside/aglycon within its isoflavone family (concentrated soybean protein, substrate concentration 20%, heat treatment of enzyme no, reaction time 3 h): 66.2%
- Decomposition efficiency: ratio of each glycoside/aglycon within its isoflavone family (concentrated soybean protein, substrate concentration 20%, heat treatment of enzyme no, reaction time 6 h): 69.2%
- Decomposition efficiency: ratio of each glycoside/aglycon within its isoflavone family (concentrated soybean protein, substrate concentration 20%, heat treatment of enzyme yes, reaction time 6 h): 11.1%
- Decomposition efficiency: ratio of each glycoside/aglycon within its isoflavone family (concentrated soybean protein, substrate concentration 30%, heat treatment of enzyme no, reaction time 0 h): 8.2%
- Decomposition efficiency: ratio of each glycoside/aglycon within its isoflavone family (concentrated soybean protein, substrate concentration 30%, heat treatment of enzyme no, reaction time 1 h): 61.5%
- Decomposition efficiency: ratio of each glycoside/aglycon within its isoflavone family (concentrated soybean protein, substrate concentration 30%, heat treatment of enzyme no, reaction time 3 h): 68.9%
- Decomposition efficiency: ratio of each glycoside/aglycon within its isoflavone family (concentrated soybean protein, substrate concentration 30%, heat treatment of enzyme no, reaction time 6 h): 71.4%
- Decomposition efficiency: ratio of each glycoside/aglycon within its isoflavone family (concentrated soybean protein, substrate concentration 30%, heat treatment of enzyme yes, reaction time 6 h): 8.2%
- Decomposition efficiency: ratio of each glycoside/aglycon within its isoflavone family (defatted soybean, substrate concentration 2%, heat treatment of enzyme no, reaction time 0 h): not detected
- Decomposition efficiency: ratio of each glycoside/aglycon within its isoflavone family (defatted soybean, substrate concentration 2%, heat treatment of enzyme no, reaction time 1 h): not detected
- Decomposition efficiency: ratio of each glycoside/aglycon within its isoflavone family (defatted soybean, substrate concentration 2%, heat treatment of enzyme no, reaction time 3 h): not detected
- Decomposition efficiency: ratio of each glycoside/aglycon within its isoflavone family (defatted soybean, substrate concentration 2%, heat treatment of enzyme no, reaction time 6 h): not detected
- Decomposition efficiency: ratio of each glycoside/aglycon within its isoflavone family (defatted soybean, substrate concentration 2%, heat treatment of enzyme yes, reaction time 6 h): not detected
- Decomposition efficiency: ratio of each glycoside/aglycon within its isoflavone family (defatted soybean, substrate concentration 5%, heat treatment of enzyme no, reaction time 0 h): 41.6%
- Decomposition efficiency: ratio of each glycoside/aglycon within its isoflavone family (defatted soybean, substrate concentration 5%, heat treatment of enzyme no, reaction time 1 h): 58.4%
- Decomposition efficiency: ratio of each glycoside/aglycon within its isoflavone family (defatted soybean, substrate concentration 5%, heat treatment of enzyme no, reaction time 3 h): 68.2%
- Decomposition efficiency: ratio of each glycoside/aglycon within its isoflavone family (defatted soybean, substrate concentration 5%, heat treatment of enzyme no, reaction time 6 h): 80.5%
- Decomposition efficiency: ratio of each glycoside/aglycon within its isoflavone family (defatted soybean, substrate concentration 5%, heat treatment of enzyme yes, reaction time 6 h): 41.5%
- Decomposition efficiency: ratio of each glycoside/aglycon within its isoflavone family (defatted soybean, substrate concentration 10%, heat treatment of enzyme no, reaction time 0 h): 47.0%
- Decomposition efficiency: ratio of each glycoside/aglycon within its isoflavone family (defatted soybean, substrate concentration 10%, heat treatment of enzyme no, reaction time 1 h): 45.3%
- Decomposition efficiency: ratio of each glycoside/aglycon within its isoflavone family (defatted soybean, substrate concentration 10%, heat treatment of enzyme no, reaction time 3 h): 63.4%
- Decomposition efficiency: ratio of each glycoside/aglycon within its isoflavone family (defatted soybean, substrate concentration 10%, heat treatment of enzyme no, reaction time 6 h): 72.1%
- Decomposition efficiency: ratio of each glycoside/aglycon within its isoflavone family (defatted soybean, substrate concentration 10%, heat treatment of enzyme yes, reaction time 6 h): 42.4%
- Decomposition efficiency: ratio of each glycoside/aglycon within its isoflavone family (roasted soy flour, substrate concentration 2%, heat treatment of enzyme no, reaction time 0 h): 16.2%
- Decomposition efficiency: ratio of each glycoside/aglycon within its isoflavone family (roasted soy flour, substrate concentration 2%, heat treatment of enzyme no, reaction time 1 h): 100.0%
- Decomposition efficiency: ratio of each glycoside/aglycon within its isoflavone family (roasted soy flour, substrate concentration 2%, heat treatment of enzyme no, reaction time 3 h): 100.0%
- Decomposition efficiency: ratio of each glycoside/aglycon within its isoflavone family (roasted soy flour, substrate concentration 2%, heat treatment of enzyme no, reaction time 6 h): 100.0%
- Decomposition efficiency: ratio of each glycoside/aglycon within its isoflavone family (roasted soy flour, substrate concentration 2%, heat treatment of enzyme yes, reaction time 6 h): 12.2%
- Decomposition efficiency: ratio of each glycoside/aglycon within its isoflavone family (roasted soy flour, substrate concentration 5%, heat treatment of enzyme no, reaction time 0 h): 11.4%
- Decomposition efficiency: ratio of each glycoside/aglycon within its isoflavone family (roasted soy flour, substrate concentration 5%, heat treatment of enzyme no, reaction time 1 h): 88.2%
- Decomposition efficiency: ratio of each glycoside/aglycon within its isoflavone family (roasted soy flour, substrate concentration 5%, heat treatment of enzyme no, reaction time 3 h): 92.8%
- Decomposition efficiency: ratio of each glycoside/aglycon within its isoflavone family (roasted soy flour, substrate concentration 5%, heat treatment of enzyme no, reaction time 6 h): 100.0%
- Decomposition efficiency: ratio of each glycoside/aglycon within its isoflavone family (roasted soy flour, substrate concentration 5%, heat treatment of enzyme yes, reaction time 6 h): 11.4%
- Decomposition efficiency: ratio of each glycoside/aglycon within its isoflavone family (roasted soy flour, substrate concentration 10%, heat treatment of enzyme no, reaction time 0 h): 5.5%
- Decomposition efficiency: ratio of each glycoside/aglycon within its isoflavone family (roasted soy flour, substrate concentration 10%, heat treatment of enzyme no, reaction time 1 h): 83.3%
- Decomposition efficiency: ratio of each glycoside/aglycon within its isoflavone family (roasted soy flour, substrate concentration 10%, heat treatment of enzyme no, reaction time 3 h): 90.3%
- Decomposition efficiency: ratio of each glycoside/aglycon within its isoflavone family (roasted soy flour, substrate concentration 10%, heat treatment of enzyme no, reaction time 6 h): 100.0%
- Decomposition efficiency: ratio of each glycoside/aglycon within its isoflavone family (roasted soy flour, substrate concentration 10%, heat treatment of enzyme yes, reaction time 6 h): 9.9%
- Decomposition efficiency: ratio of each glycoside/aglycon within its isoflavone family (roasted soy flour, substrate concentration 20%, heat treatment of enzyme no, reaction time 0 h): 8.6%
- Decomposition efficiency: ratio of each glycoside/aglycon within its isoflavone family (roasted soy flour, substrate concentration 20%, heat treatment of enzyme no, reaction time 1 h): 77.1%
- Decomposition efficiency: ratio of each glycoside/aglycon within its isoflavone family (roasted soy flour, substrate concentration 20%, heat treatment of enzyme no, reaction time 3 h): 86.2%
- Decomposition efficiency: ratio of each glycoside/aglycon within its isoflavone family (roasted soy flour, substrate concentration 20%, heat treatment of enzyme no, reaction time 6 h): 90.0%
- Decomposition efficiency: ratio of each glycoside/aglycon within its isoflavone family (roasted soy flour, substrate concentration 20%, heat treatment of enzyme yes, reaction time 6 h): 9.1%
- Decomposition efficiency: ratio of each glycoside/aglycon within its isoflavone family (roasted soy flour, substrate concentration 30%, heat treatment of enzyme no, reaction time 0 h): 8.8%
- Decomposition efficiency: ratio of each glycoside/aglycon within its isoflavone family (roasted soy flour, substrate concentration 30%, heat treatment of enzyme no, reaction time 1 h): 71.6%
- Decomposition efficiency: ratio of each glycoside/aglycon within its isoflavone family (roasted soy flour, substrate concentration 30%, heat treatment of enzyme no, reaction time 3 h): 75.6%
- Decomposition efficiency: ratio of each glycoside/aglycon within its isoflavone family (roasted soy flour, substrate concentration 30%, heat treatment of enzyme no, reaction time 6 h): 86.3%
- Decomposition efficiency: ratio of each glycoside/aglycon within its isoflavone family (roasted soy flour, substrate concentration 30%, heat treatment of enzyme yes, reaction time 6 h): 8.7%
- Decomposition efficiency: ratio of each glycoside/aglycon within its isoflavone family (soymilk, substrate concentration 2%, heat treatment of enzyme no, reaction time 0 h): not detected
- Decomposition efficiency: ratio of each glycoside/aglycon within its isoflavone family (soymilk, substrate concentration 2%, heat treatment of enzyme no, reaction time 1 h): 100.0%
- Decomposition efficiency: ratio of each glycoside/aglycon within its isoflavone family (soymilk, substrate concentration 2%, heat treatment of enzyme no, reaction time 3 h): 100.0%
- Decomposition efficiency: ratio of each glycoside/aglycon within its isoflavone family (soymilk, substrate concentration 2%, heat treatment of enzyme no, reaction time 6 h): 100.0%
- Decomposition efficiency: ratio of each glycoside/aglycon within its isoflavone family (soymilk, substrate concentration 2%, heat treatment of enzyme yes, reaction time 6 h): not detected
- Decomposition efficiency: ratio of each glycoside/aglycon within its isoflavone family (soymilk, substrate concentration 5%, heat treatment of enzyme no, reaction time 0 h): not detected
- Decomposition efficiency: ratio of each glycoside/aglycon within its isoflavone family (soymilk, substrate concentration 5%, heat treatment of enzyme no, reaction time 1 h): 75.4%
- Decomposition efficiency: ratio of each glycoside/aglycon within its isoflavone family (soymilk, substrate concentration 5%, heat treatment of enzyme no, reaction time 3 h): 92.5%
- Decomposition efficiency: ratio of each glycoside/aglycon within its isoflavone family (soymilk, substrate concentration 5%, heat treatment of enzyme no, reaction time 6 h): 100.0%
- Decomposition efficiency: ratio of each glycoside/aglycon within its isoflavone family (soymilk, substrate concentration 5%, heat treatment of enzyme yes, reaction time 6 h): not detected
- Decomposition efficiency: ratio of each glycoside/aglycon within its isoflavone family (soymilk, substrate concentration 10%, heat treatment of enzyme no, reaction time 0 h): 6.4%
- Decomposition efficiency: ratio of each glycoside/aglycon within its isoflavone family (soymilk, substrate concentration 10%, heat treatment of enzyme no, reaction time 1 h): 73.6%
- Decomposition efficiency: ratio of each glycoside/aglycon within its isoflavone family (soymilk, substrate concentration 10%, heat treatment of enzyme no, reaction time 3 h): 89.5%
- Decomposition efficiency: ratio of each glycoside/aglycon within its isoflavone family (soymilk, substrate concentration 10%, heat treatment of enzyme no, reaction time 6 h): 95.8%
- Decomposition efficiency: ratio of each glycoside/aglycon within its isoflavone family (soymilk, substrate concentration 10%, heat treatment of enzyme yes, reaction time 6 h): 6.2%
- Decomposition efficiency: ratio of each glycoside/aglycon within its isoflavone family (soymilk, substrate concentration 20%, heat treatment of enzyme no, reaction time 0 h): 6.3%
- Decomposition efficiency: ratio of each glycoside/aglycon within its isoflavone family (soymilk, substrate concentration 20%, heat treatment of enzyme no, reaction time 1 h): 72.2%
- Decomposition efficiency: ratio of each glycoside/aglycon within its isoflavone family (soymilk, substrate concentration 20%, heat treatment of enzyme no, reaction time 3 h): 90.6%
- Decomposition efficiency: ratio of each glycoside/aglycon within its isoflavone family (soymilk, substrate concentration 20%, heat treatment of enzyme no, reaction time 6 h): 94.1%
- Decomposition efficiency: ratio of each glycoside/aglycon within its isoflavone family (soymilk, substrate concentration 20%, heat treatment of enzyme yes, reaction time 6 h): 5.7%
- Decomposition efficiency: ratio of each glycoside/aglycon within its isoflavone family (soymilk, substrate concentration 30%, heat treatment of enzyme no, reaction time 0 h): 6.1%
- Decomposition efficiency: ratio of each glycoside/aglycon within its isoflavone family (soymilk, substrate concentration 30%, heat treatment of enzyme no, reaction time 1 h): 66.9%
- Decomposition efficiency: ratio of each glycoside/aglycon within its isoflavone family (soymilk, substrate concentration 30%, heat treatment of enzyme no, reaction time 3 h): 84.1%
- Decomposition efficiency: ratio of each glycoside/aglycon within its isoflavone family (soymilk, substrate concentration 30%, heat treatment of enzyme no, reaction time 6 h): 92.3%
- Decomposition efficiency: ratio of each glycoside/aglycon within its isoflavone family (soymilk, substrate concentration 30%, heat treatment of enzyme yes, reaction time 6 h): 6.7%
SMILES: COc1cc2c(=O)c(-c3ccc(O)cc3)coc2cc1O [glycitein]
